Reference: patent US7006929B2, “Signal detecting sensor provided with multi-electrode” (Matsushita Electric Industrial Co., Ltd., priority 2001, dated 2006)

System: artificially reconstructed neural cell network (rat cerebral cortex neurons)
Assay: stimulus transmission in reconstructed neural cell network on 64-electrode sensor
Format: cell-based
Conditions: 40 μM, treated for 10 minutes; constant voltage stimulus at one electrode (row 5, column 5)
Description: Neurons were prepared from the cerebral cortex of gestation day 17 rat embryos and were suspended in Dulbecco's modified medium, and were dispensed into each container of a sensor comprising 64 electrodes and containers as shown in FIG. 3 at a concentration of 5×10^5 cells/ml, followed by culturing for two weeks. As a result, an artificial neural cell network was reconstructed on the sensor. The sensor containing the reconstructed neural cell network was used as follows. An apparatus having the configuration of FIG. […] The transmission of the stimulus was measured by detecting cell potentials at the remaining 63 electrodes. […] A neural cell network reconstructed as in Examples 1 and 2 was treated with 40 μM DNQX (6,7-Dinitroquinoxaline-2,3(1H,4H)-dione) for 10 minutes. As in Example 2, a constant voltage stimulus was applied to a cell on a sensor. The transmission of the stimulus was measured by detecting cell potentials at the remaining 63 electrodes.

`O=c1[nH]c2cc([N+](=O)[O-])c([N+](=O)[O-])cc2[nH]c1=O` [DNQX, 6,7-Dinitroquinoxaline-2,3(1H,4H)-dione] was tested, and the “response (cell potentials) at the remaining 63 electrodes to constant voltage stimulus” value was “a response was not observed at any of the electrodes”.
